For orientation: inhibition means the change of the read-out against control, counted positive when it falls. A higher inhibition goes with a strong effect.

In paper PMC6934184, “Selective DNA-PKcs inhibition extends the therapeutic index of localized radiotherapy and chemotherapy” (The Journal of Clinical Investigation, 2019) one finds inhibition data, which are given here for one molecule.

The target of the experiment is T1, PDGFRB (PDGFR beta) (Homo sapiens, UniProt P09619).
T1 construct: purchased Thermo Fisher Scientific (Life Technologies) SelectScreen
Kind of experiment: SelectScreen Z'LYTE. The class given is biochemical. The method, boiled down: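 NU5455 was profiled across the SelectScreen Broad panel of kinase activity and binding assays. Z'LYTE reactions such as CSF1R ran at apparent Km ATP, while the Adapta CAMK1 assay used ATP listed as 10. Values are given as percent.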

T1 sequence (P09619 33-1106): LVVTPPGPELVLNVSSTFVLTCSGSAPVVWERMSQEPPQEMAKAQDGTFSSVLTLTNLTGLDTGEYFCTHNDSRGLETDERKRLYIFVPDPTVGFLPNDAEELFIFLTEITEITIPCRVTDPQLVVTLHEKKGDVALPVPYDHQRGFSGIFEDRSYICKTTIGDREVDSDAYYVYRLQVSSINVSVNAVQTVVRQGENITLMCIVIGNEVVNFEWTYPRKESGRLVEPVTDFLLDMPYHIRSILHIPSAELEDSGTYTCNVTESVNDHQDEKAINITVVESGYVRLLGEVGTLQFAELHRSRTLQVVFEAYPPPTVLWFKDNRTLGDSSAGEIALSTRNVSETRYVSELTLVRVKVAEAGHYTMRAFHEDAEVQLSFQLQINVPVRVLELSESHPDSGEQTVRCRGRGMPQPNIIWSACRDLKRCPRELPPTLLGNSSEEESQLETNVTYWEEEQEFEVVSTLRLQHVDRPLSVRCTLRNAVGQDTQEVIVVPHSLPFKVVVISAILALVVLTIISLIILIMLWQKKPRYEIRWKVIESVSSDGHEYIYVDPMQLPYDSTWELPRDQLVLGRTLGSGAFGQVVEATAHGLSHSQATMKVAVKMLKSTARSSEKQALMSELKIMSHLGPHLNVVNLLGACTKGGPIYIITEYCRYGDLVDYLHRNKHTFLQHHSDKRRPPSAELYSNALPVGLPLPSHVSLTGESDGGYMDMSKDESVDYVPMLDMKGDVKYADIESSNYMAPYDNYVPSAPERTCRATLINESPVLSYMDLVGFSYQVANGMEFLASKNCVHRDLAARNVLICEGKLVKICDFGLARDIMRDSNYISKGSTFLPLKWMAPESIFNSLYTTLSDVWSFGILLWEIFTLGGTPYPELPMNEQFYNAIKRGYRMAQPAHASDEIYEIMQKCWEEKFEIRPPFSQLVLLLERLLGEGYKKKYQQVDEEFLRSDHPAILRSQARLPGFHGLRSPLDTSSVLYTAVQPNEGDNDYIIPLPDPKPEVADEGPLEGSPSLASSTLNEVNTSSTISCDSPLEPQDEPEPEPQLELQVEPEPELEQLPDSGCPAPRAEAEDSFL

Take `CN(C(=O)CN1CCOCC1)c1ccc2sc3c(-c4cccc5c(=O)cc(N6CC7CCC(C6)O7)oc45)cccc3c2c1` [NU5455]: testing at 1 µM gave an inhibition of 11%.
